Assay results as given in publication PMC6199744, “Development of Chemical Proteomics for the Folateome and Analysis of the Kinetoplastid Folateome” (ACS Infectious Diseases, 2018).

System: L. major lysate proteins
Experiment: Multitargeted bead mixture chemoproteomics, single concentration competition, proteome-wide
Format: binding
Details: for fold change: vehicle control = 1

## Nc1nc2c(c(=O)[nH]1)N(C=O)C(CNc1ccc(C(=O)N[C@@H](CCC(=O)O)C(=O)O)cc1)CN2 (stereo partly drawn) [LEU, leucovorin]
Protein LMJF.28.0490 PROPIONYL-COA C[…] CHAIN, PUTATIVE
  fold change vs vehicle control: 1.09
Protein LMJF.28.0710 HYPOTHETICAL PROTEIN, CONSERVED (SNARE associated Golgi protein, putative)
  fold change: 0.76
Protein LMJF.28.0930 HYPOTHETICAL PROTEIN, CONSERVED
  fold change vs vehicle control: 0.9
Protein LMJF.28.0960 40S RIBOSOMAL PROTEIN S14
  fold change vs vehicle control: 1.06
Protein LMJF.28.1530 ATP DEPENDENT DEAD-BOX HELICASE, PUTATIVE
  fold change vs vehicle control: 0.95
Protein LMJF.28.1730, […]-ATP-ASE SUBUNIT 2, PUTATIVE
  fold change relative to vehicle control: 1.27
Protein LMJF.28.2430 VACUOLAR ATP SYNTHASE SUBUNIT B, PUTATIVE
  fold change vs vehicle control: 1.01
Protein LMJF.28.2770, HEAT-SHOCK PROTEIN HSP70, PUTATIVE
  fold change relative to vehicle control: 1.32
Protein LMJF.28.2910 GLUTAMATE DEHYDROGENASE, PUTATIVE
  fold change: 1.1
Protein LMJF.29.0120 […]-ATPASE SUBUNIT, PUTATIVE
  fold change vs vehicle control: 1.15
Protein LMJF.29.0620 ATP-BINDING CASSETTE PROTEIN SUBFAMILY A, MEMBER 10, PUTATIVE
  fold change: 0.8
Protein LMJF.29.0760 […] BI[…], PUTATIVE,HEAT SHOCK PROTEIN 90, PUTATIVE
  fold change vs vehicle control: 1.05
Protein LMJF.29.0850, HIGH MOBILITY GROUP PROTEIN HOMOLOG TDP-1, PUTATIVE
  fold change relative to vehicle control: 2.2
Protein LMJF.29.0940 HY[…], CONSERVED
  fold change vs vehicle control: 1.06
Protein LMJF.29.1160 TRYPAREDOXIN
  fold change vs vehicle control: 1.05
Protein LMJF.29.1240 HYPOTHETICAL PROTEIN, UNKNOWN FUNCTION
  fold change vs vehicle control: 0.99
Protein LMJF.29.1270 100 kDa heat shock protein (Hsp100)
  fold change vs vehicle control: 0.99
Protein LMJF.29.1310 CARNITINE/CHOLINE ACETYLTRANSFERASE, PUTATIVE
  fold change vs vehicle control: 0.93
Protein LMJF.29.1760, PAR[…] PROTEIN 1D, PUTATIVE
  fold change relative to vehicle control: 1.22
Protein LMJF.29.1780 D[…] PROTEIN, PUTATIVE
  fold change vs vehicle control: 1.01
Protein LMJF.29.2200 GTP-BINDING PROTEIN, PUTATIVE (dynamin-1-like protein)
  fold change: 0.99
Protein LMJF.29.2310 ENOYL-COA HYDRATASE/ISOMERASE-LIKE PROTEIN
  fold change: 0.93
Protein LMJF.29.2360 ASPARTYL AMINOPEPTIDASE, PUTATIVE,METALLO-PEPTIDASE, CLAN MH, FAMILY M20
  fold change vs vehicle control: 1.08
Protein LMJF.29.2860 40S RIBOSOMAL PROTEIN S19-LIKE PROTEIN
  fold change: 1.01
Protein LMJF.30.0580 HYPOTHETICAL PROTEIN, CONSERVED (AMP-binding enzyme, putative)
  fold change: 0.99
Protein LMJF.30.0850 SURFACE PROTEIN AMASTIN, PUTATIVE
  fold change: 0.99
Protein LMJF.30.1250 PYRIDOXAL KINASE, PUTATIVE
  fold change vs vehicle control: 1.08
Protein LMJF.30.2580 RETICULON DOMAIN PROTEIN, 22 KDA POTENTIALLY AGGRAVATING PROTEIN (PAPLE22)
  fold change vs vehicle control: 0.97
Protein LMJF.30.3090, HY[…], CONSERVED (RNA-binding protein 42, putative)
  fold change relative to vehicle control: 1.16
Protein LMJF.30.3240 GLUTAMYL-TRNA SYNTHETASE, PUTATIVE
  fold change vs vehicle control: 0.9
Protein LMJF.30.3380 PAS-DOMAIN CONTAINING PHOSPHOGLYCERATE KINASE, PUTATIVE
  fold change: 0.97
Protein LMJF.30.3430 HYPOTHETICAL PROTEIN, CONSERVED (protein mkt1, putative)
  fold change: 0.93
Protein LMJF.30.3520 S-ADENOSYLMETHIONINE SYNTHETASE
  fold change: 0.9
Protein LMJF.30.3570 ZINC FINGER-DOMAIN PROTEIN, PUTATIVE
  fold change: 0.81
Protein LMJF.31.0080, HY[…], CONSERVED
  fold change relative to vehicle control: 1.25
Protein LMJF.31.0340 AMINO ACID PERMEASE, PUTATIVE
  fold change vs vehicle control: 1.03
Protein LMJF.31.1130 N-ACYL-L-AMINO ACID AMIDOHYDROLASE, PUTATIVE
  fold change: 1
Protein LMJF.31.1640 THIOLASE PROTEIN-LIKE PROTEIN
  fold change vs vehicle control: 1.02
Protein LMJF.31.2150, PROSTAGLANDIN F2-ALPHA SYNTHASE/D-ARABINOSE DEHYDROGENASE
  fold change relative to vehicle control: 1.25
Protein LMJF.31.2250 3,2-TRANS-ENOYL-COA ISOMERASE, MIT[…], PUTATIVE
  fold change vs vehicle control: 0.92
Protein LMJF.32.0750 RNA BINDING PROTEIN, PUTATIVE
  fold change vs vehicle control: 1.05
Protein LMJF.32.1060 DYNEIN, PUTATIVE
  fold change vs vehicle control: 1.02
Protein LMJF.32.1820, IRON […], PUTATIVE
  fold change relative to vehicle control: 1.22
Protein LMJF.32.2320, C-14 STEROL REDUCTASE, PUTATIVE
  fold change relative to vehicle control: 1.12
Protein LMJF.32.3870 MYOSIN XXI
  fold change vs vehicle control: 0.9
Protein LMJF.33.0240, THIOL-DEPENDENT REDUCTASE 1
  fold change relative to vehicle control: 1.13
Protein LMJF.33.0280 HYPOTHETICAL PROTEIN, CONSERVED
  fold change: 0.89
Protein LMJF.33.0890, HY[…], CONSERVED
  fold change relative to vehicle control: 0.98
Protein LMJF.33.1070 HY[…], UNKNOWN FUNCTION
  fold change vs vehicle control: 1.03
Protein LMJF.33.1330 CYSTEINE CONJUGATE BETA-LYASE, AMINOTRANSFERASE- LIKE PROTEIN
  fold change vs vehicle control: 0.87
Protein LMJF.33.1590 HY[…], CONSERVED (3-ketoacyl-CoA reductase, putative)
  fold change: 1.46
Protein LMJF.33.1860, ATP-BINDING CASSETTE PROTEIN SUBFAMILY D, MEMBER 3, PUTATIVE
  fold change relative to vehicle control: 1.04
Protein LMJF.33.2340, SUCCINYL-COA:3-KETOACID-COENZYME A TRANSFERASE, MIT[…], PUTATIVE
  fold change relative to vehicle control: 1.09
Protein LMJF.33.2440, HY[…], CONSERVED
  fold change relative to vehicle control: 1.07
Protein LMJF.33.2540, CARBOXYPEPTIDASE, PUTATIVE,METALLO-PEPTIDASE, CLAN MA(E), FAMILY M32
  fold change relative to vehicle control: 1.95
Protein LMJF.33.3150 40S RIBOSOMAL PROTEIN S13, PUTATIVE
  fold change: 0.89
Protein LMJF.34.0140, MALATE DEHYDROGENASE
  fold change relative to vehicle control: 1.53
Protein LMJF.34.0440 RIBOSOMAL PROTEIN S25
  fold change vs vehicle control: 1.25
Protein LMJF.34.2580, HY[…], CONSERVED (ALBA-domain protein 3)
  fold change relative to vehicle control: 1.01
Protein LMJF.34.3250, PUTATIVE PYRUVATE/INDOLE-PYRUVATE CARBOXYLASE, PUTATIVE
  fold change relative to vehicle control: 1.08
Protein LMJF.34.4370 20S PROTEASOME BETA 7 SUBUNIT, (PUTATIVE)
  fold change: 0.92
Protein LMJF.34.4620 HYPOTHETICAL PROTEIN, CONSERVED
  fold change vs vehicle control: 0.95
Protein LMJF.35.0070 PROHIBITIN, PUTATIVE
  fold change: 0.93
Protein LMJF.35.0360 ENOYL-COA HYDRATASE/ISOMERASE FAMILY PROTEIN, CONSERVED
  fold change vs vehicle control: 1.24
Protein LMJF.35.0370 ATP-DEPENDENT DEAD-BOX RNA HELICASE, PUTATIVE
  fold change: 0.97
Protein LMJF.35.0420 40S RIBOSOMAL PROTEIN S3A, PUTATIVE
  fold change: 1.03
